Calls of active or inactive are those of the source. The calls are words filed in the database; no cut-off is given here.
Columns and labels:
[1] = tested on: PC-3; experiment: Antiproliferative activity against human PC3 cells after 72 hrs by MTT assay; assay type: functional; details: PC-3, 72 h
[2] = Antiproliferative activity against human MDA231 cells after 72 hrs by MTT assay; assay type: functional; details: MDA-MB-231, 72 h
[3] = tested on: SK-BR-3; experiment: Antiproliferative activity against human SKBr3 cells after 72 hrs by MTT assay; assay type: functional; details: SK-BR-3, 72 h
[4] = tested on: MCF7; experiment: Antiproliferative activity against human MCF7 cells after 72 hrs by MTT assay; assay type: functional; details: MCF7, 72 h
[5] = tested on: PC-3; experiment: Disruption of microtubules in human PC3 cells at 100 nM after 12 hrs; assay type: functional, cell-based

GI50 [1]	GI50 [3]	GI50 [4]	SMILES	GI50 [2]	Activity [5]
9.9 nM	10.5 nM	8.3 nM	CO[C@@H]1/C=C(C)/C=C/[C@@H](C)/C=C(\C)C(=O)O[C@H](/C(C)=C/C=C(\C)CNC(=O)[C@H](COC(=O)Nc2ccccc2)NC=O)[C@@H](C)/C=C/C=C/[C@@H](OC)CC/C=C(C)\C=C\C1	8.8 nM	
15.3 nM	20 nM	7.5 nM	CO[C@@H]1/C=C(C)/C=C/[C@@H](C)/C=C/C(=O)O[C@H](/C(C)=C/C=C(\C)CNC(=O)[C@H](COC(=O)Nc2ccccc2)NC=O)[C@@H](C)/C=C/C=C/[C@@H](OC)CC/C=C(C)\C=C\C1	12 nM	
			CC(=O)O[C@H]1C(=O)[C@@]2(C)[C@H]([C@H](OC(=O)c3ccccc3)[C@]3(O)C[C@H](OC(=O)[C@H](O)[C@@H](NC(=O)c4ccccc4)c4ccccc4)C(C)=C1C3(C)C)[C@]1(OC(C)=O)CO[C@@H]1C[C@@H]2O		Active
